{
  "source": "patent US20210379062A1",
  "about": "“The use of a H3R inverse agonist for the treatment of excessive daytime sleepiness associated with parkinson's disease (PD)” (Novartis AG, priority 2018, published 2021)",
  "key": {"[1]": {"assay": "First-in-human SAD/MAD study: safety, tolerability, night sleep duration, formulation effect", "assay_type": "in vivo", "description": "An open-label, adaptive design study was performed in healthy volunteers to characterize regional brain H3 receptor occupancy following single dose of Compound (I) by using positron emission tomography (PET) with the radioligand [^11C]MK-8278 (Van Laere, K. J. et al, Journal of Nuclear Medicine, 2014, 55: 65-72). The primary objective of this study was to evaluate the plasma concentration of Compound (I) leading to 50% occupancy of H3 receptors in the brain (EC50). A total of 6 subjects were enrolled into the study and were scanned in three cohorts of two subjects each. Prior to dosing with Compound (I), each subject underwent a baseline PET scan to assess binding of [^11C]MK-8278 to H3R in the absence of Compound (I). Subjects subsequently received single oral doses of Compound (I) and then underwent two post-dose PET scans. Subjects of cohort 1 received a single oral dose of 300 mg of Compound (I), corresponding to the single dose maximum tolerated dose (MTD) determined from the Phase I study after single oral dose of Compound (I). These subjects underwent two post-dose PET scans, at 3 hours and 27 hours after dosing. The doses and scan timings for the subsequent cohorts were selected based on interim data analyses following the completion of the preceding cohort(s). Subjects of cohorts 2 and 3 received a single oral dose of 10 mg and 0.3 mg, respectively. Compound (I) was administered as capsules in cohorts 1 and 2, whereas cohort 3 received Compound (I) as an oral solution. […] The first post-dose PET scan for cohorts 2 and 3 was acquired at 3 hours and the second one at 27 hours and 8 hours after dosing, respectively.\nPK data (drug concentration over time) from Part 1 and Part 2 of the Phase I study were used in the development of the model: • 1) Part 1 is the Single Ascending Dose part; 8 different cohorts were used, with each cohort composed of 6 active subjects and 2 placebo subjects. The dose amounts used in the 8 cohorts were 0.3, 1, 3, 10, 30, 100, 300 and 800 mg. Dosing was performed at time equal to 0 hours. […]"}, "[2]": {"system": "tele-methylhistamine (tMeHA)", "assay": "Ex vivo PD determination: brain tele-methylhistamine time course in rats", "set-up": "species or system rat", "details": "10 mg/kg oral", "description": "Male Sprague-Dawley rats (Shanghai SLAC Laboratory Animal Co. LTD) of 6-7 weeks age were used. Animals were housed in a temperature and humidity-controlled environment on a 12 h light/dark. All animals had free access to food and water. All procedures were approved by Institutional Animal Care and Use Committee of ChemPartner Co., LTD (IACUC Protocol NO: A998HL0002).\nFor bioanalysis of brain tissue tele-methylhistamine samples were further processed.\nOne aliquot of the stock solution was diluted using ethanol/phosphate buffer pH 7.4 (85:15, v/v) to achieve a series working solutions. The brain homogenate was centrifuged at 12000 rpm for 5 min at 4° C. Then 10 μL supernatant of the brain homogenate sample was added to 60 μL internal standard (d3-1-methyl-histamine, 20 ng/mL). The mixture was vortexed for 2 min and centrifuged at 12000 rpm for 5 min at 4° C. Finally, 60 μL supernatant was added and 3 μL supernatant was injected into LC-MS/MS for analysis (Agilent 6410, triple quadrupole mass spectrometer, Mobile phase A: H2O— 0.1% NH3, Mobile phase B: methanol— 0.1% NH3, Column: Ultimate XB-C18 (2.1×50 mm, 5 μm, Flow rate: 0.45 mL/min, temperature: 40° C.)."}},
  "data": [
    {"smiles": "Cn1nc(N2CCC(OC(=O)N3CCN(C4CCC4)CC3)CC2)ccc1=O", "note": "[Compound (I), 1-(1-methyl-6-oxo-1,6-dihydropyridazin-3-yl)piperidin-4-yl 4-cyclobutylpiperazine-1-carboxylate]", "values": [
      {"measurement": "highest tolerated repeated dose", "setting": "[1]; healthy volunteer study, repeated dose", "value": 50, "unit": "mg"},
      {"measurement": "difference in PK, capsule vs oral solution", "setting": "[1]; in vivo, po", "value": "no clinically relevant difference"},
      {"measurement": "single dose maximum tolerated dose (MTD)", "setting": "[1]; single oral dose, Phase I study", "value": 300, "unit": "mg"},
      {"measurement": "time at which tMeHA increase starts", "setting": "[2]", "value": 30, "unit": "min"},
      {"measurement": "time of tMeHA peak", "setting": "[2]", "value": 2, "unit": "h"},
      {"measurement": "tMeHA level at 8 h", "setting": "[2]; 8 h", "value": "stayed slightly elevated"},
      {"measurement": "effect on tMeHA levels", "setting": "[2]; brain", "value": "increased"},
      {"measurement": "duration of histamine release after compound administration", "setting": "[2]; deconvolution of the PD data", "value": "about 2 h"}
    ]}
  ]
}
